# Test results published in US8901118B2, “Compounds and methods for kinase modulation, and indications therefor” (Plexxikon Inc., priority 2010, dated 2014).
# Key:
# [1] = molecular target: Fms kinase (Homo sapiens, UniProt P07333); experiment: Fms kinase biochemical activity assay (AlphaScreen, biotin-(E4Y)10 phosphorylation); conditions: 100 μM ATP; read-out: Biochemical Inhibition IC50 Fms
# In short: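 Fms kinase (1 ng/well) phosphorylating 30 nM biotin-(E4Y)10 with 100 μM ATP in 25 mM Hepes pH 7.5, MgCl2/MnCl2, 5% DMSO, 20 min at 30 °C. Phosphotyrosine detected by AlphaScreen streptavidin donor and PY20 acceptor beads; IC50 from signal versus compound concentration.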
# [2] = molecular target: T1, CYP1A2 (Homo sapiens, UniProt P05177); experiment: CYP1A2 inhibition (fluorescent substrate CEC); format: in vitro ADME; conditions: read-out: Cyp IC50 1A2
# T1 sequence (P05177 1-516): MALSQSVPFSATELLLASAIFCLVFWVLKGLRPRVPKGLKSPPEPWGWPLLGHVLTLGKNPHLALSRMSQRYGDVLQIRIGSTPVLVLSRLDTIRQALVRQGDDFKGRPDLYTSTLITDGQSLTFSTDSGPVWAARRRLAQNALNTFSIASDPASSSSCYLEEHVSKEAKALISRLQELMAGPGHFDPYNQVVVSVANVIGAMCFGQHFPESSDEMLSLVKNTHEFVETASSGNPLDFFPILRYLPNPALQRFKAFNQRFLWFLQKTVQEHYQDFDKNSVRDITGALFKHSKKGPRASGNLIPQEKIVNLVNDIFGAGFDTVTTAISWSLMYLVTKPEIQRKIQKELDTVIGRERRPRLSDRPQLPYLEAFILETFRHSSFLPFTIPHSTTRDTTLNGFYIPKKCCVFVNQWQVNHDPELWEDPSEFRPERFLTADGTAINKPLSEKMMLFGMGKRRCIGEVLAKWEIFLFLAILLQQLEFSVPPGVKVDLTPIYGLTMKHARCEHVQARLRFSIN
# In short: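 Test compounds, 10-point 1:1 serial dilutions in NADPH-regenerating cofactor mix, were preincubated 10 min at 37° C before recombinant enzyme and fluorogenic substrate reactions at 37° C (CYP1A2 15 min; CYP2C9 45 min; CYP2C19, 2D6 30 min). Product fluorescence was read at 409 ex with 460 em (1A2, 2C19) or 530 em (2C9, 2D6), and IC50 fitted from signal versus concentration.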
# Sequence of Fms kinase (P07333 20-972): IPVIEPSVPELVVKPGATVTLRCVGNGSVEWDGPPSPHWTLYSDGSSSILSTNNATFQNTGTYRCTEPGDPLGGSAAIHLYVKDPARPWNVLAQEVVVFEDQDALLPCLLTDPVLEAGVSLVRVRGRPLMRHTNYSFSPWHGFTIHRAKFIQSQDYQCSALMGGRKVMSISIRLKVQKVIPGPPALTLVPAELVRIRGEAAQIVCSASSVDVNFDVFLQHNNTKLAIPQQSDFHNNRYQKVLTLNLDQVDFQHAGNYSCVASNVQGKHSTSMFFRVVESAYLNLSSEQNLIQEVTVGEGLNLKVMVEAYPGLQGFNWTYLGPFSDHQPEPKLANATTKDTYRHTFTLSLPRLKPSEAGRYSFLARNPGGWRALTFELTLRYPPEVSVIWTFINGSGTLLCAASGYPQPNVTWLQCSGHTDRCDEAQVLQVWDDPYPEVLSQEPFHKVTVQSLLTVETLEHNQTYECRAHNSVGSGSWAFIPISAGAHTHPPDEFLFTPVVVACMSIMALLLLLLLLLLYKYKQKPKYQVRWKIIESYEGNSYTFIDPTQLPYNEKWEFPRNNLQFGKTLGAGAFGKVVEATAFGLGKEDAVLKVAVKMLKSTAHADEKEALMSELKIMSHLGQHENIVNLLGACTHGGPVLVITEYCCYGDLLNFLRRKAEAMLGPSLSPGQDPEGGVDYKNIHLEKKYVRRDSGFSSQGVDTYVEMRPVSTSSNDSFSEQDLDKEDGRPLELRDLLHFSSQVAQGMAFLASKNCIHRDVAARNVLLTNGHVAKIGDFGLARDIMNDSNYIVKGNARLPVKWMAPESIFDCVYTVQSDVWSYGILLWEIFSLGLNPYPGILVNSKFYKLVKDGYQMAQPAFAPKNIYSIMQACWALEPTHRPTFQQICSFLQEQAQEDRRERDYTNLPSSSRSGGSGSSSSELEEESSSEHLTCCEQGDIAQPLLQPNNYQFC
SMILES,IC50 [1] [µM],IC50 [2] [µM]
"Cc1cnc2[nH]cc(Cc3ccc(Nc4ccc(C)nc4)nc3F)c2c1 [Compound P-3041, [6-Fluoro-5-(5-methyl-1H-pyrrolo[2,3-b]pyridin-3-ylmethyl)-pyridin-2-yl]-(6-methyl-pyridin-3-yl)-amine]",< 0.01,> 10
"COc1ncnc2[nH]cc(Cc3ccc(Nc4ccc(C5CC5)nc4)nc3F)c12 [Compound P-4004, (6-Cyclopropyl-pyridin-3-yl)-[6-fluoro-5-(4-methoxy-7H-pyrrolo[2,3-d]pyrimidin-5-ylmethyl)-pyridin-2-yl]-amine]",< 0.1,> 10
"COc1ncnc2[nH]cc(Cc3ccc(Nc4ccc(C)nc4)nc3F)c12 [Compound P-4010, [6-Fluoro-5-(4-methoxy-7H-pyrrolo[2,3-d]pyrimidin-5-ylmethyl)-pyridin-2-yl]-(6-methyl-pyridin-3-yl)-amine]",< 0.01,> 10
"CCn1cc(Nc2ccc(Cc3c[nH]c4ncnc(C5CC5)c34)c(F)n2)cn1 [Compound P-4036, [5-(4-Cyclopropyl-7H-pyrrolo[2,3-d]pyrimidin-5-ylmethyl)-6-fluoro-pyridin-2-yl]-(1-ethyl-1H-pyrazol-4-yl)-amine]",< 0.01,5 to 10
"CCn1cc(Nc2ccc(C(=O)c3c[nH]c4ncnc(C5CC5)c34)c(F)n2)cn1 [Compound P-4037, (4-Cyclopropyl-7H-pyrrolo[2,3-d]pyrimidin-5-yl)-[6-(1-ethyl-1H-pyrazol-4-ylamino)-2-fluoro-pyridin-3-yl]-methanone]",< 0.1,> 10
"Cc1ccc(Nc2ccc(Cc3c[nH]c4ncnc(C5CC5)c34)c(F)n2)cn1 [Compound P-4030, [5-(4-Cyclopropyl-7H-pyrrolo[2,3-d]pyrimidin-5-ylmethyl)-6-fluoro-pyridin-2-yl]-(6-methyl-pyridin-3-yl)-amine]",< 0.01,> 10
"COCCOc1ncnc2[nH]cc(Cc3ccc(Nc4ccc(C)nc4)nc3F)c12 [Compound P-4015, {6-Fluoro-5-[4-(2-methoxy-ethoxy)-7H-pyrrolo[2,3-d]pyrimidin-5-ylmethyl]-pyridin-2-yl}-(6-methyl-pyridin-3-yl)-amine]",< 0.1,> 10
"Fc1nc(Nc2ccc(C3CC3)nc2)ccc1Cc1c[nH]c2ncccc12 [Compound P-3053, (6-Cyclopropyl-pyridin-3-yl)-[6-fluoro-5-(1H-pyrrolo[2,3-b]pyridin-3-ylmethyl)-pyridin-2-yl]-amine]",< 0.01,> 10
"CCOc1ccc(Nc2ccc(Cc3c[nH]c4ncc(C)cc34)c(F)n2)cn1 [Compound P-3039, (6-ethoxy-pyridin-3-yl)-[6-fluoro-5-(5-methyl-1H-pyrrolo[2,3-b]pyridin-3-ylmethyl)-pyridin-2-yl]-amine]",< 0.01,> 10
"Fc1nc(NC2CCC(F)(F)CC2)ccc1Cc1c[nH]c2ncnc(NC3CC3)c12 [Compound P-4129, N-cyclopropyl-5-[[6-[(4,4-difluorocyclohexyl)amino]-2-fluoro-3-pyridyl]methyl]-7H-pyrrolo[2,3-d]pyrimidin-4-amine]",< 0.1,> 10
"Cc1cnc2[nH]cc(C(=O)c3ccc(Nc4ccc(C5CC5)nc4)nc3F)c2c1 [Compound P-3051, [6-(6-Cyclopropyl-pyridin-3-ylamino)-2-fluoro-pyridin-3-yl]-(5-methyl-1H-pyrrolo[2,3-b]pyridin-3-yl)-methanone]",< 0.01,> 10
"Clc1cnc2[nH]cc(Cc3cnc(NC4CCCCCC4)nc3)c2c1 [Compound P-3006, [5-(5-Chloro-1H-pyrrolo[2,3-b]pyridin-3-ylmethyl)-pyrimidin-2-yl]-cycloheptyl-amine]",< 0.01,> 10
"COc1ccc(Nc2ccc(Cc3c[nH]c4ncnc(OC)c34)c(F)n2)cn1 [Compound P-4001, [6-Fluoro-5-(4-methoxy-7H-pyrrolo[2,3-d]pyrimidin-5-ylmethyl)-pyridin-2-yl]-(6-methoxy-pyridin-3-yl)-amine]",< 0.01,> 10
"Cc1ccc(Nc2ccc(C(=O)c3c[nH]c4ncnc(C5CC5)c34)c(F)n2)cn1 [Compound P-4031, (4-Cyclopropyl-7H-pyrrolo[2,3-d]pyrimidin-5-yl)-[2-fluoro-6-(6-methyl-pyridin-3-ylamino)-pyridin-3-yl]-methanone]",< 0.1,> 10
"Fc1nc(Nc2ccc(C3CC3)nc2)ccc1Cc1c[nH]c2ncnc(NCC(F)(F)F)c12 [Compound P-4130, 5-[[6-[(6-cyclopropyl-3-pyridyl)amino]-2-fluoro-3-pyridyl]methyl]-N-(2,2,2-trifluoroethyl)-7H-pyrrolo[2,3-d]pyrimidin-4-amine]",< 0.01,> 10
"CCc1ccc(Nc2ccc(C(=O)c3c[nH]c4ncc(C)cc34)c(F)n2)cn1 [Compound P-3049, [6-(6-Ethyl-pyridin-3-ylamino)-2-fluoro-pyridin-3-yl]-(5-methyl-1H-pyrrolo[2,3-b]pyridin-3-yl)-methanone]",< 0.01,> 10
"Clc1cnc2[nH]cc(Cc3cnc(NC4CCCCC4)nc3)c2c1 [Compound P-3001, [5-(5-chloro-1H-pyrrolo[2,3-b]pyridin-3-ylmethyl)-pyrimidin-2-yl]-cyclohexyl-amine]",< 0.1,> 10
"COc1ccc(Nc2ccc(Cc3c[nH]c4ncc(C)cc34)c(F)n2)cn1 [Compound P-3019, [6-fluoro-5-(5-methyl-1H-pyrrolo[2,3-b]pyridin-3-ylmethyl)-pyridin-2-yl]-(6-methoxy-pyridin-3-yl)-amine]",< 0.01,> 10
"COc1ccc(Nc2ccc(C(=O)c3c[nH]c4ncnc(C5CC5)c34)c(F)n2)cn1 [Compound P-4022, (4-cyclopropyl-7H-pyrrolo[2,3-d]pyrimidin-5-yl)-[2-fluoro-6-(6-methoxy-pyridin-3-ylamino)-pyridin-3-yl]-methanone]",< 0.1,> 10
"CCc1ccc(Nc2ccc(Cc3c[nH]c4ncnc(OC)c34)c(F)n2)cn1 [Compound P-4007, (6-Ethyl-pyridin-3-yl)-[6-fluoro-5-(4-methoxy-7H-pyrrolo[2,3-d]pyrimidin-5-ylmethyl)-pyridin-2-yl]-amine]",< 0.01,> 10
"CCOc1ccc(Nc2ccc(Cc3c[nH]c4ncnc(C)c34)c(F)n2)cn1 [Compound P-4006, (6-Ethoxy-pyridin-3-yl)-[6-fluoro-5-(4-methyl-7H-pyrrolo[2,3-d]pyrimidin-5-ylmethyl)-pyridin-2-yl]-amine]",< 0.01,> 10
"CCOc1ccc(Nc2ccc(Cc3c[nH]c4ncnc(OC)c34)c(F)n2)cn1 [Compound P-4005, (6-Ethoxy-pyridin-3-yl)-[6-fluoro-5-(4-methoxy-7H-pyrrolo[2,3-d]pyrimidin-5-ylmethyl)-pyridin-2-yl]-amine]",< 0.01,> 10
"Cc1cnc2[nH]cc(Cc3cnc(Nc4ccc(C(F)(F)F)nc4)nc3)c2c1 [Compound P-3018, [5-(5-Methyl-1H-pyrrolo[2,3-b]pyridin-3-ylmethyl)-pyrimidin-2-yl]-(6-trifluoromethyl-pyridin-3-yl)-amine]",< 0.01,> 10
"CCn1cc(Nc2ccc(Cc3c[nH]c4ncnc(OC)c34)c(F)n2)cn1 [Compound P-4011, (1-Ethyl-1H-pyrazol-4-yl)-[6-fluoro-5-(4-methoxy-7H-pyrrolo[2,3-d]pyrimidin-5-ylmethyl)-pyridin-2-yl]-amine]",< 0.01,> 10
"CCOc1ncnc2[nH]cc(Cc3ccc(Nc4cnn(CC)c4)nc3F)c12 [Compound P-4012, [5-(4-Ethoxy-7H-pyrrolo[2,3-d]pyrimidin-5-ylmethyl)-6-fluoro-pyridin-2-yl]-(1-ethyl-1H-pyrazol-4-yl)-amine]",< 0.01,> 10
"Cc1cnc2[nH]cc(C(=O)c3ccc(Nc4ccc(C)nc4)nc3F)c2c1 [Compound P-3043, [2-Fluoro-6-(6-methyl-pyridin-3-ylamino)-pyridin-3-yl]-(5-methyl-1H-pyrrolo[2,3-b]pyridin-3-yl)-methanone]",< 0.01,> 10
"COc1ccc(Nc2ccc(Cc3c[nH]c4ncnc(C5CC5)c34)c(F)n2)cn1 [Compound P-4023, [5-(4-cyclopropyl-7H-pyrrolo[2,3-d]pyrimidin-5-ylmethyl)-6-fluoro-pyridin-2-yl]-(6-methoxy-pyridin-3-yl)-amine]",< 0.01,> 10
"CCn1cc(Nc2ccc(Cc3c[nH]c4ncnc(C)c34)c(F)n2)cn1 [Compound P-4013, (1-Ethyl-1H-pyrazol-4-yl)-[6-fluoro-5-(4-methyl-7H-pyrrolo[2,3-d]pyrimidin-5-ylmethyl)-pyridin-2-yl]-amine]",< 0.01,> 10
